Data: ChEMBL document CHEMBL1201862, “PubChem BioAssay data set” (2004)
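Dose response: 5 concentrations. Exposure: 48 h. Format: 96-well plates. Endpoint: linear interpolation; highest concentration if not reached. GI50 is the concentration that inhibits growth by half.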 Active and inactive are the calls of the source. Cut-off read from the data, not from the text of the source: active = GI50 up to about 1.1 µM and inactive = higher. Non-standard residues stand in square brackets, D forms with d. Residues, ends and D or L forms follow the SMILES beside them. *: point of attachment. Ac5c = NC1(C(=O)O)CCCC1; Boc = CC(C)(C)OC(=O)*; tBu = CC(C)(C)*

Assays:
Assay in all cases: NCI tumour cell line growth inhibition, 48 h
[1] = tested on: 786-0
[2] = tested on: A498
[3] = tested on: A549
[4] = tested on: ACHN
[5] = tested on: DU-145
[6] = tested on: EKVX
[7] = tested on: HCC 2998
[8] = tested on: HCT-116
[9] = tested on: HCT-15
[10] = tested on: HL-60
[11] = tested on: HOP-62
[12] = tested on: HOP-92
[13] = tested on: HT-29
[14] = tested on: Hs-578T
[15] = tested on: IGROV-1
[16] = tested on: K562
[17] = tested on: KM12
[18] = tested on: LOX IMVI
[19] = tested on: M14
[20] = tested on: MCF7
[21] = tested on: MDA-MB-231
[22] = tested on: MDA-MB-435
[23] = tested on: MDA-N
[24] = tested on: MOLT-4
[25] = tested on: Malme-3M
[26] = tested on: NCI-H226
[27] = tested on: NCI-H460
[28] = tested on: NCI-H522
[29] = tested on: NCI/ADR-RES
[30] = tested on: OVCAR-3
[31] = tested on: OVCAR-5
[32] = tested on: OVCAR-8
[33] = tested on: PC-3
[34] = tested on: RPMI-8226
[35] = tested on: SF-268
[36] = tested on: SF-295
[37] = tested on: SF-539
[38] = tested on: SK-MEL-28
[39] = tested on: SK-MEL-2
[40] = tested on: SK-OV-3
[41] = tested on: SN12C
[42] = tested on: SNB-19
[43] = tested on: SNB-75
[44] = tested on: SR
[45] = tested on: SW-620
[46] = tested on: T47D
[47] = tested on: TK-10
[48] = tested on: U-251
[49] = tested on: UACC-257
[50] = tested on: UACC-62
[51] = tested on: UO-31
[52] = tested on: CAKI-1
[53] = tested on: CCRF-CEM
[54] = tested on: COLO 205
[55] = tested on: NCI-H23
[56] = tested on: OVCAR-4
[57] = tested on: RXF 393
[58] = tested on: SK-MEL-5

Compound: Oc1cnc2c(O)cccc2c1 [JINEOL]
- GI50 [1]: 35.5 µM (inactive)
- GI50 [2]: > 100 µM (inactive)
- GI50 [3]: 40.7 µM (inactive)
- GI50 [4]: 27.5 µM (inactive)
- GI50 [5]: 57.3 µM (inactive)
- GI50 [6]: 15.9 µM (inactive)
- GI50 [7]: 43.4 µM (inactive)
- GI50 [8]: 40.8 µM (inactive)
- GI50 [9]: 33.5 µM
- GI50 [10]: 31.5 µM (inactive)
- GI50 [11]: 26.7 µM (inactive)
- GI50 [12]: 41 µM (inactive)
- GI50 [13]: 32.7 µM (inactive)
- GI50 [14]: > 100 µM (inactive)
- GI50 [15]: 20.3 µM (inactive)
- GI50 [16]: 51.3 µM (inactive)
- GI50 [17]: 12.8 µM (inactive)
- GI50 [18]: 26.2 µM (inactive)
- GI50 [19]: 24.5 µM (inactive)
- GI50 [20]: 30.7 µM (inactive)
- GI50 [21]: 52 µM (inactive)
- GI50 [22]: 80.2 µM (inactive)
- GI50 [23]: 57.1 µM (inactive)
- GI50 [24]: 41.7 µM (inactive)
- GI50 [25]: 34.8 µM (inactive)
- GI50 [26]: 24.2 µM (inactive)
- GI50 [27]: 31.9 µM (inactive)
- GI50 [28]: 19.2 µM (inactive)
- GI50 [29]: 18.2 µM (inactive)
- GI50 [30]: 20.6 µM (inactive)
- GI50 [31]: 24.9 µM (inactive)
- GI50 [32]: 26.2 µM (inactive)
- GI50 [33]: 36.8 µM (inactive)
- GI50 [34]: 38.1 µM (inactive)
- GI50 [35]: 33.2 µM (inactive)
- GI50 [36]: 36.8 µM (inactive)
- GI50 [37]: 30.3 µM (inactive)
- GI50 [38]: 76.6 µM (inactive)
- GI50 [39]: 64.4 µM (inactive)
- GI50 [40]: 32.6 µM (inactive)
- GI50 [41]: 37.5 µM (inactive)
- GI50 [42]: 58.9 µM (inactive)
- GI50 [43]: 20.7 µM (inactive)
- GI50 [44]: 40.6 µM (inactive)
- GI50 [45]: 45.5 µM (inactive)
- GI50 [46]: 29 µM (inactive)
- GI50 [47]: 53.1 µM (inactive)
- GI50 [48]: 48.9 µM (inactive)
- GI50 [49]: 56.6 µM (inactive)
- GI50 [50]: 32.7 µM (inactive)
- GI50 [51]: 30.8 µM (inactive)

Compound: CC(OC(C)(C)C)C(NC(=O)C(CCCCNC(=O)OC(C)(C)C)NC(=O)C(Cc1c[nH]c2ccccc12)NC(=O)C(N)Cc1ccccc1)C(=O)NC(Cc1ccccc1)C(=O)NC1(C(=O)O)CCCC1 (configuration not stated) (H-FWK(Boc)T(tBu)F[Ac5c]-OH; configuration not given here)
- GI50 [1]: > 100 µM (inactive)
- GI50 [2]: > 100 µM (inactive)
- GI50 [3]: > 100 µM (inactive)
- GI50 [4]: > 100 µM (inactive)
- GI50 [52]: > 100 µM (inactive)
- GI50 [53]: > 100 µM (inactive)
- GI50 [54]: > 100 µM (inactive)
- GI50 [5]: > 100 µM (inactive)
- GI50 [6]: > 100 µM (inactive)
- GI50 [7]: > 100 µM (inactive)
- GI50 [8]: > 100 µM (inactive)
- GI50 [9]: > 100 µM
- GI50 [11]: > 100 µM (inactive)
- GI50 [12]: > 100 µM (inactive)
- GI50 [13]: > 100 µM (inactive)
- GI50 [14]: > 100 µM (inactive)
- GI50 [15]: > 100 µM (inactive)
- GI50 [16]: > 100 µM (inactive)
- GI50 [17]: > 100 µM (inactive)
- GI50 [18]: > 100 µM (inactive)
- GI50 [19]: > 100 µM (inactive)
- GI50 [20]: > 100 µM (inactive)
- GI50 [21]: > 100 µM (inactive)
- GI50 [22]: > 100 µM (inactive)
- GI50 [23]: > 100 µM (inactive)
- GI50 [24]: > 100 µM (inactive)
- GI50 [25]: > 100 µM (inactive)
- GI50 [26]: > 100 µM (inactive)
- GI50 [55]: > 100 µM (inactive)
- GI50 [27]: > 100 µM (inactive)
- GI50 [28]: > 100 µM (inactive)
- GI50 [29]: > 100 µM (inactive)
- GI50 [30]: > 100 µM (inactive)
- GI50 [56]: > 100 µM (inactive)
- GI50 [31]: > 100 µM (inactive)
- GI50 [32]: > 100 µM (inactive)
- GI50 [33]: > 100 µM (inactive)
- GI50 [34]: > 100 µM (inactive)
- GI50 [57]: > 100 µM (inactive)
- GI50 [35]: > 100 µM (inactive)
- GI50 [36]: > 100 µM (inactive)
- GI50 [37]: > 100 µM (inactive)
- GI50 [38]: > 100 µM (inactive)
- GI50 [39]: > 100 µM (inactive)
- GI50 [58]: > 100 µM (inactive)
- GI50 [40]: > 100 µM (inactive)
- GI50 [41]: > 100 µM (inactive)
- GI50 [42]: > 100 µM (inactive)
- GI50 [43]: > 100 µM (inactive)
- GI50 [45]: > 100 µM (inactive)
- GI50 [46]: 79.4 µM (inactive)
- GI50 [47]: > 100 µM (inactive)
- GI50 [48]: > 100 µM (inactive)
- GI50 [49]: > 100 µM (inactive)
- GI50 [50]: > 100 µM (inactive)
- GI50 [51]: > 100 µM (inactive)
